Experimental data from ChEMBL document CHEMBL5724914, “Linking interpersonal differences in gut microbiota composition and drug biotransformation activity” (2024).

Key:
[1] = (§1) The drug is tested on Z-024 corresponding to pig gut metagenome with ENA study accession number: PRJEB37062 and ENA sample accession number: ERS12561823 for biotransformation under anaerobic condition. The drug concentrations were measured over 9 timepoints collected between 0 and 24 hours of incubation by liquid-chromatography-coupled mass spectrometry (LC–MS); settings: 2 µM
[2] = as §1, with “WLS-170” for “Z-024”, “human” for “pig”, “ERS12561762” for “ERS12561823”; settings: 2 µM
[3] = as §1, with “WLS-073” for “Z-024”, “human” for “pig”, “ERS12561749” for “ERS12561823”; settings: 2 µM
[4] = as §1, with “WLS-007” for “Z-024”, “human” for “pig”, “ERS12561742” for “ERS12561823”; settings: 2 µM
[5] = as §1, with “WLS-006” for “Z-024”, “human” for “pig”, “ERS12561741” for “ERS12561823”; settings: 2 µM
[6] = human gut metagenome, 24 h, 2 µM
[7] = human gut metagenome, 24 h, 2 µM; remark: listed apart in the source
[8] = human gut metagenome, 24 h, 2 µM; remark: listed apart in the source
[9] = human gut metagenome, 24 h, 2 µM; remark: listed apart in the source
[10] = human gut metagenome, 24 h, 2 µM; remark: listed apart in the source
[11] = human gut metagenome, 24 h, 2 µM; remark: listed apart in the source
[12] = human gut metagenome, 24 h, 2 µM; remark: listed apart in the source
[13] = human gut metagenome, 24 h, 2 µM; remark: listed apart in the source
[14] = human gut metagenome, 24 h, 2 µM; remark: listed apart in the source
[15] = as §1, with “Z-027” for “Z-024”, “to” for “to pig gut”, “ERS12561826” for “ERS12561823”; settings: 2 µM
[16] = as §1, with “Z-022” for “Z-024”, “mouse” for “pig”, “ERS12561821” for “ERS12561823”; settings: 2 µM
[17] = as §1, with “Z-009” for “Z-024”, “ERS12561809” for “ERS12561823”; settings: 2 µM
[18] = as §1, with “Z-008” for “Z-024”, “to” for “to pig gut”, “ERS12561808” for “ERS12561823”; settings: 2 µM
[19] = as §1, with “Z-006” for “Z-024”, “mouse” for “pig”, “ERS12561806” for “ERS12561823”; settings: 2 µM
[20] = as §1, with “Z-018” for “Z-024”, “ERS12561817” for “ERS12561823”; settings: 2 µM
Also: call rule not given here.

Bacterial Biotransformation [1] | Bacterial Biotransformation [2] | Bacterial Biotransformation [3] | Bacterial Biotransformation [4] | Bacterial Biotransformation [5] | Bacterial Biotransformation [6] | Bacterial Biotransformation [7] | Bacterial Biotransformation [8] | Bacterial Biotransformation [9] | Bacterial Biotransformation [10] | Bacterial Biotransformation [11] | Bacterial Biotransformation [12] | Bacterial Biotransformation [13] | Bacterial Biotransformation [14] | Bacterial Biotransformation [15] | Bacterial Biotransformation [16] | Bacterial Biotransformation [17] | Bacterial Biotransformation [18] | Bacterial Biotransformation [19] | Bacterial Biotransformation [20] | Compound
 | Compound metabolized | Compound NOT metabolized | Compound NOT metabolized | Compound NOT metabolized | Compound NOT metabolized | Compound NOT metabolized | Compound NOT metabolized | Compound NOT metabolized | Compound metabolized | Compound NOT metabolized | Compound NOT metabolized | Compound NOT metabolized | Compound metabolized |  |  |  |  |  |  | CN(C)CCc1c[nH]c2ccc(CS(=O)(=O)N3CCCC3)cc12 [ALMOTRIPTAN]
 | Compound metabolized | Compound NOT metabolized | Compound metabolized | Compound metabolized | Compound NOT metabolized | Compound NOT metabolized | Compound NOT metabolized | Compound NOT metabolized | Compound metabolized | Compound metabolized | Compound NOT metabolized | Compound metabolized | Compound metabolized |  |  |  |  |  |  | CCCCC(=O)O[C@]1(C(=O)CO)[C@@H](C)C[C@H]2[C@@H]3CCC4=CC(=O)C=C[C@]4(C)[C@@]3(F)[C@@H](O)C[C@@]21C [BETAMETHASONE VALERATE]
 | Compound metabolized | Compound metabolized | Compound metabolized | Compound metabolized | Compound metabolized | Compound metabolized | Compound metabolized | Compound metabolized | Compound metabolized | Compound metabolized | Compound metabolized | Compound metabolized | Compound metabolized |  |  |  |  |  |  | CC(=O)Oc1ccc(C(c2ccc(OC(C)=O)cc2)c2ccccn2)cc1 [BISACODYL]
 | Compound metabolized | Compound metabolized | Compound NOT metabolized | Compound metabolized | Compound NOT metabolized | Compound metabolized | Compound metabolized | Compound metabolized | Compound metabolized | Compound metabolized | Compound NOT metabolized | Compound metabolized | Compound metabolized |  |  |  |  |  |  | Cc1nc(Nc2ncc(C(=O)Nc3c(C)cccc3Cl)s2)cc(N2CCN(CCO)CC2)n1 [DASATINIB ANHYDROUS]
 | Compound NOT metabolized | Compound NOT metabolized | Compound NOT metabolized | Compound metabolized | Compound NOT metabolized | Compound NOT metabolized | Compound metabolized | Compound metabolized | Compound NOT metabolized | Compound NOT metabolized | Compound NOT metabolized | Compound metabolized | Compound metabolized |  |  |  |  |  |  | COCCCC/C(=N\OCCN)c1ccc(C(F)(F)F)cc1.O=C(O)/C=C\C(=O)O [FLUVOXAMINE MALEATE]
Compound NOT metabolized | Compound NOT metabolized | Compound NOT metabolized | Compound NOT metabolized | Compound NOT metabolized | Compound NOT metabolized | Compound NOT metabolized | Compound NOT metabolized | Compound NOT metabolized | Compound NOT metabolized | Compound NOT metabolized | Compound NOT metabolized | Compound NOT metabolized | Compound NOT metabolized | Compound NOT metabolized | Compound NOT metabolized | Compound NOT metabolized | Compound NOT metabolized | Compound NOT metabolized |  | N=C(N)NC(=O)Cc1c(Cl)cccc1Cl [GUANFACINE]
 | Compound NOT metabolized | Compound metabolized | Compound NOT metabolized |  | Compound NOT metabolized | Compound NOT metabolized | Compound NOT metabolized | Compound NOT metabolized | Compound NOT metabolized | Compound NOT metabolized | Compound NOT metabolized | Compound NOT metabolized | Compound NOT metabolized |  |  |  |  |  |  | CC#CCn1c(N2CCC[C@@H](N)C2)nc2c1c(=O)n(Cc1nc(C)c3ccccc3n1)c(=O)n2C [LINAGLIPTIN]
 | Compound metabolized | Compound NOT metabolized | Compound NOT metabolized | Compound NOT metabolized | Compound NOT metabolized | Compound NOT metabolized | Compound NOT metabolized | Compound NOT metabolized | Compound metabolized | Compound NOT metabolized | Compound NOT metabolized | Compound NOT metabolized | Compound metabolized |  |  |  |  |  |  | N#Cc1ccc2c(c1)N(CCCN1CCC(O)CC1)c1ccccc1S2 [PERICIAZINE]
Compound metabolized | Compound metabolized | Compound NOT metabolized |  |  | Compound NOT metabolized | Compound NOT metabolized | Compound NOT metabolized | Compound metabolized | Compound metabolized |  | Compound NOT metabolized | Compound metabolized | Compound NOT metabolized |  | Compound metabolized |  | Compound NOT metabolized |  |  | CNNCc1ccc(C(=O)NC(C)C)cc1 [PROCARBAZINE]
Compound NOT metabolized | Compound metabolized |  |  |  |  | Compound NOT metabolized | Compound NOT metabolized | Compound NOT metabolized | Compound NOT metabolized |  | Compound NOT metabolized |  | Compound metabolized | Compound NOT metabolized |  | Compound metabolized | Compound NOT metabolized | Compound NOT metabolized | Compound NOT metabolized | CN(C/C=C/C#CC(C)(C)C)Cc1cccc2ccccc12 [TERBINAFINE]

Compound | Bacterial Biotransformation [1] | Bacterial Biotransformation [2] | Bacterial Biotransformation [3] | Bacterial Biotransformation [4] | Bacterial Biotransformation [5] | Bacterial Biotransformation [6] | Bacterial Biotransformation [7] | Bacterial Biotransformation [8] | Bacterial Biotransformation [9] | Bacterial Biotransformation [10] | Bacterial Biotransformation [11] | Bacterial Biotransformation [12] | Bacterial Biotransformation [13] | Bacterial Biotransformation [14] | Bacterial Biotransformation [15] | Bacterial Biotransformation [16] | Bacterial Biotransformation [17] | Bacterial Biotransformation [18] | Bacterial Biotransformation [19] | Bacterial Biotransformation [20]
N[C@@H](Cc1ccc(N(CCCl)CCCl)cc1)C(=O)O | Compound metabolized | Compound metabolized | Compound metabolized | Compound metabolized | Compound metabolized | Compound NOT metabolized | Compound NOT metabolized | Compound NOT metabolized | Compound NOT metabolized | Compound metabolized | Compound metabolized | Compound metabolized | Compound metabolized | Compound NOT metabolized |  |  |  |  |  | 
CNCC[C@H](Oc1cccc2ccccc12)c1cccs1 [DULOXETINE] |  | Compound metabolized | Compound NOT metabolized | Compound metabolized | Compound metabolized | Compound NOT metabolized | Compound NOT metabolized | Compound NOT metabolized | Compound NOT metabolized | Compound metabolized | Compound NOT metabolized | Compound NOT metabolized | Compound NOT metabolized | Compound metabolized |  |  |  |  |  | 
